Experimental findings from patent EP0729957A1, “PYRIDINE COMPOUND AND MEDICINAL USE THEREOF” (YOSHITOMI PHARMACEUTICAL INDUSTRIES, LTD., priority 1993, dated 1995) are described below.

Structures can show the parent of a compound that is named as a salt. Where two headings read alike, the source gives them in different places.

One assay concerns gastric acid secretion. Briefly: Action on gastric acid secretion of rats subjected to gastroperfusion (histamine-induced). Type of assay: in vivo. The settings on record: 3 mg/kg i.v., 5 minutes before histamine hydrochloride (1 mg/kg i.v.); urethane-anesthetized Wistar rats. As for the experimental part: Experimental Example 2: Action on gastric acid secretion of rats subjected to gastroperfusion
The experiment was done according to the method of Ghosh et al, Br. J. Pharmacol. 13, p 54 (1958). Wistar rats were fasted for 20 hours and anesthetized with urethane (1.5 g/kg, subcutaneous). A polyethylene tube for injection and discharge for gastroperfusion was attached to the rats. Gastroperfusion was performed using physiological saline (37°C) at a speed of 7 ml/min and the perfusate was recovered at 10-min intervals. Histamine hydrochloride (1 mg/kg) was intravenously administered at 1-hr intervals to induce secretion of gastric acid. A test solution containing the test compound was intravenously administered 5 minutes before the histamine hydrochloride administration. The acidity of the gastric acid was titrated up to pH 7.0 with an automatic titrator and percent suppression of gastric acid secretion by the test compound was determined.

Another assay deals with Helicobacter pylori. Briefly: Antibacterial activity (in vitro) against Helicobacter pylori, agar dilution MIC. Type of assay: cell-based. To be noted: clinical isolates (18 strains), agar plate, 37°C, 8% CO2, 3-4 days; for MIC50: minimum concentration necessary for inhibiting growth by 50%; for MIC90: minimum concentration necessary for inhibiting growth by 90%.
[1] abbreviates: Helicobacter pylori, read-out: MIC50.
The mark [2] stands for this setting: Helicobacter pylori, read-out: MIC90.

“2-((3-methyl-4-(2-(2-methoxpolyethoxy)ethylthio)-2-pyridyl)methylsulfinyl)-1H-benzimidazole [Example 25]”: in the assay with gastric acid secretion, the “Suppression (%)” value was 100%.
For the compound “2-((3-methyl-4-(2-(2-methoxypolyethoxy)ethylthio)-2-pyridyl)methylthio)-1H-benzimidazole·hydrochloride [Example 22]”, in the assay on Helicobacter pylori, the MIC50 (usually an inhibitory concentration at the 50% level, which refers to growth in some studies and to a panel of isolates in others) was 0.025 µg/mL; the MIC90 (in general, an inhibitory concentration at the 90% level, which refers to growth in some studies and to a panel of isolates in others) was found to be 0.025 µg/mL.
On to “2-((3-methyl-4-(2-methoxypolyethoxy)-2-pyridyl) methylsulfinyl)-1H-benzimidazole [Example 26]”, for which the “Suppression (%)” value in the assay on gastric acid secretion is listed as 50%.
With `COCCOCCSc1ccnc(CSc2nc3ccccc3[nH]2)c1C` [Example 17, 2-((3-methyl-4-(2-(2-methoxyethoxy)ethylthio)-2-pyridyl)methylthio)-1H-benzimidazole·hydrochloride], the MIC50 with Helicobacter pylori (setting [1]) was 0.025 µg/mL. The MIC90 with Helicobacter pylori (setting [2]) was 0.05 µg/mL.
For the compound `COCCOCCOCCSc1ccnc(CSc2nc3ccccc3[nH]2)c1C` [Example 21, 2-((3-methyl-4-(2-(2-(2-methoxyethoxy)ethoxy)ethylthio)-2-pyridyl)methylthio)-1H-benzimidazole·hydrochloride], the MIC50 in the assay with Helicobacter pylori (setting [1]) worked out at 0.012 µg/mL. The MIC90 with Helicobacter pylori (setting [2]) came out at 0.025 µg/mL.
